Results on one compound are retold here after ChEMBL document CHEMBL5543151, “Rational Design of a Novel Class of Human ClpP Agonists through a Ring-Opening Strategy with Enhanced Antileukemia Activity” (J Med Chem, 2024).

In assay [1] the test system is MV4-11. Put plainly: Anti-leukemia activity against human MV4-11 cells assessed as decrease in cell proliferation incubated for 72 hrs by CCK-8 assay. Format: functional, cell-based. Conditions: MV4-11, 72 h.
Assay [2] relates to MV4-11. Put plainly: Potency index, ratio of ONC201 IC50 to test compound IC50 for anti-leukemia activity against human MV4-11 cells assessed as decrease in cell proliferation incubated for 72 hrs by CCK-8 assay. Format: functional.
Assay [3] deals with T1, ATP-dependent Clp protease proteolytic subunit, mitochondrial (Homo sapiens, UniProt Q16740). Put plainly: Agonist activity at human Casein lysing protease P (HsClpP) assessed as proteolytic activity by measuring alpha-casein hydrolysis measured after 2 hrs incubation by fluorescence assay.
Assay [4] has as its target T1, ATP-dependent Clp protease proteolytic subunit, mitochondrial. Put plainly: Binding affinity to human Casein lysing protease P (HsClpP) assessed as change in melting temperature measured after 2 hrs differential scanning fluorimetry (DSF) assay.
For assay [5], the system named is MV4-11. Put plainly: Anti-leukemia activity against human MV4-11 cells assessed as decrease in cell proliferation incubated for 24 hrs by CCK-8 assay. Conditions: MV4-11, 24 h. Format: functional, cell-based.
For assay [6], the system named is MV4-11. Put plainly: Anti-leukemia activity against human MV4-11 cells assessed as decrease in cell proliferation incubated for 48 hrs by CCK-8 assay. Format: functional, cell-based. As to conditions: MV4-11, 48 h.
The test system of a further assay is MOLM-13. Put plainly: Anti-leukemia activity against human MOLM-13 cells assessed as decrease in cell proliferation incubated for 72 hrs by CCK-8 assay. Format: functional, cell-based. As to conditions: MOLM-13, 72 h.
The test system of the next assay is U-937. Put plainly: Anti-leukemia activity against human U-937 cells assessed as decrease in cell proliferation incubated for 72 hrs by CCK-8 assay. Format: functional, cell-based. As to conditions: U-937, 72 h.
A further assay has as its system OCI-AML2. Put plainly: Anti-leukemia activity against human OCI-AML2 cells assessed as decrease in cell proliferation incubated for 72 hrs by CCK-8 assay. Format: functional, cell-based. As to conditions: OCI-AML2, 72 h.
Another assay concerns THP-1. Put plainly: Anti-leukemia activity against human THP-1 cells assessed as decrease in cell proliferation incubated for 72 hrs by CCK-8 assay. Format: functional, cell-based. Conditions: THP-1, 72 h.
The subject of the next assay is HL-60. Put plainly: Anti-leukemia activity against human HL-60 cells assessed as decrease in cell proliferation incubated for 72 hrs by CCK-8 assay. Format: functional, cell-based. Conditions: HL-60, 72 h.
The next assay relates to Kasumi 1. Put plainly: Anti-leukemia activity against human Kasumi 1 cells assessed as decrease in cell proliferation incubated for 72 hrs by CCK-8 assay. Format: functional, cell-based. Conditions: Kasumi 1, 72 h.
The test system of the next assay is K562. Put plainly: Anti-leukemia activity against human K562 cells assessed as decrease in cell proliferation incubated for 72 hrs by CCK-8 assay. Format: functional, cell-based. Conditions: K562, 72 h.
For assay [7], the system named is MV4-11. Put plainly: Induction of apoptosis in human MV4-11 cells assessed as increase in apoptotic (annexin V-positive) cell proportions by measuring apoptotic rate at 120 nM measured after 48 hrs by Annexin V-647/P1 apoptosis detection assay relative to control. Format: functional.

T1 sequence (Q16740 whole entry): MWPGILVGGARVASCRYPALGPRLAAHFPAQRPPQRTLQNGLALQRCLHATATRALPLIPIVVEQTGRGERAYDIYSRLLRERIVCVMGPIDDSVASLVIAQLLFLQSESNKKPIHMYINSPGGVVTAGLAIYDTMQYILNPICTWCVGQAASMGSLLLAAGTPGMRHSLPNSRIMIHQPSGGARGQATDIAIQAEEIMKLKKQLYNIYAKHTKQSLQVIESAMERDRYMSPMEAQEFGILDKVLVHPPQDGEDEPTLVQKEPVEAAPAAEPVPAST

Consider `N#Cc1cccc(CN2CCc3[nH]c(NCc4ccc(F)cc4)nc(=O)c3C2)c1`, for which the IC50 worked out at 0.03 µM with MV4-11 [1]; 0.0301 µM in the assay with MOLM-13; 0.0782 µM with U-937; 0.0392 µM in the assay with OCI-AML2; 0.0797 µM in the assay on THP-1; 0.0405 µM in the assay on HL-60. Moreover, the IC50 with Kasumi 1 amounted to 0.0411 µM; in the assay on K562 it was 0.132 µM. Moreover, the “Ratio IC50” value in the assay with MV4-11 [2] amounted to 20. Also, the EC50 in assay [3] was 0.97 µM; in assay [4], 1.37 µM; in the assay with MV4-11 [5] it was 5.2 µM; in the assay on MV4-11 [6] it was 0.078 µM. In the assay with MV4-11 [7], the Activity is listed as about 80%.
